Earlier results, collected in patent US20210137911A1, “NOVEL CHRONOTHERAPY BASED ON CIRCADIAN RHYTHMS” (THE TRUSTEES OF THE UNIVERSITY OF PENNSYLVANIA, priority 2014, published 2021).
Like-named read-outs stand apart in the source and are kept apart here. Positions of bridges follow the written chain, without caps; N, C: chain ends. Non-standard residues stand in square brackets, D forms with d. Residues, ends and D or L forms follow the SMILES beside them. hArg = N=C(N)NCCCC[C@H](N)C(=O)O; Mpa = O=C(O)CCS

Settings: cited from earlier work
[1] = half-life of therapeutic compound as listed in Table 1
[2] = half-life of top selling therapeutic compounds (Table 1)

Molecule	½ Life [1] [h]	½ Life (in vivo) [h]	further results
Cc1cccc(Nc2ccccc2C(=O)O)c1C [Mefenamic acid]	2	–	–
C#CCN[C@@H]1CCc2ccccc21 [Rasagiline]	–	3	–
CCCCCOC(=O)Nc1nc(=O)n([C@@H]2O[C@H](C)[C@@H](O)[C@H]2O)cc1F [Capecitabine]	–	–	½ Life [2]: 0.75 h
COC(=O)[C@@H]1CC2=CC(=O)CC[C@]2(C)[C@@]23O[C@@H]2C[C@@]2(C)[C@@H](CC[C@@]24CCC(=O)O4)[C@H]13 [Eplerenone]	–	–	½ Life [2]: 4 h
OC[C@H]1O[C@@H](n2cnc3c2NC=NC[C@H]3O)C[C@@H]1O [Pentostatin]	5.7	–	–
CCC1(c2ccccc2)C(=O)NCNC1=O [Primidone]	3	–	–
OCCN(CCO)c1nc(N2CCCCC2)c2nc(N(CCO)CCO)nc(N3CCCCC3)c2n1 [Dipyridamole]	–	–	½ Life [2]: 0.66 h
CC(C)[C@@H]1NC(=O)[C@H](CCCCN)NC(=O)[C@@H](Cc2c[nH]c3ccccc23)NC(=O)[C@H](Cc2ccc(O)cc2)NC(=O)[C@@H](NC(=O)[C@H](N)Cc2ccccc2)CSSC[C@@H](C(=O)N[C@@H](Cc2c[nH]c3ccccc23)C(N)=O)NC1=O [Vapreotide] (H-[dF]CY[dW]KVCW-NH2; disulfide 2-7)	–	0.5	–
Nc1ccncc1 [Dalfampridine]	–	3.5	–
NC(=O)NO [Hydroxyurea]	3	–	–
CCN(CC)CCN1C(=O)CN=C(c2ccccc2F)c2cc(Cl)ccc21 [Flurazepam]	–	–	½ Life [2]: 2.3 h
Nc1cccc2c1CN(C1CCC(=O)NC1=O)C2=O (stereo not drawn) [Lenalidomide]	3	–	–
Cc1ncc2n1-c1ccc(Cl)cc1C(c1ccccc1F)=NC2 [Midazolam]	–	1.8	–
CC[C@H](C)C(=O)O[C@H]1C[C@@H](C)C=C2C=C[C@H](C)[C@H](CC[C@@H]3C[C@@H](O)CC(=O)O3)[C@H]21 [Lovastatin]	5.3	–	–
C[C@H](/C=C/[C@H](C)C(C)(C)O)[C@H]1CC[C@H]2/C(=C/C=C3C[C@@H](O)C[C@H](O)C3)CCC[C@]12C [Paricalcitol]	4	–	–
CCCCN1CCCCC1C(=O)Nc1c(C)cccc1C (stereo not drawn) [Bupivacaine]	–	–	½ Life [2]: 2.7 h
c1ccc([C@H]2CN3CCSC3=N2)cc1 [Levamisole]	4.4	–	–
COc1ccc2cc1Oc1cc3c(cc1OC)CC[N+](C)(C)[C@H]3Cc1ccc(cc1)Oc1c(OC)c(OC)cc3c1[C@@H](C2)[N+](C)(C)CC3 [Metocurine Iodide]	–	3	–
CCOC(=O)[C@H](CCc1ccccc1)N[C@@H](C)C(=O)N1CCC[C@H]1C(=O)O [Enalapril, reference compound]	–	–	½ Life [2]: 2 h; minimum reported half-life (see Table 1): 2 h
CCNC(=O)[C@@H]1CCCN1C(=O)[C@H](CCCNC(=N)N)NC(=O)[C@H](CC(C)C)NC(=O)[C@@H](CC(C)C)NC(=O)[C@H](Cc1ccc(O)cc1)NC(=O)[C@H](CO)NC(=O)[C@H](Cc1c[nH]c2ccccc12)NC(=O)[C@H](Cc1c[nH]cn1)NC(=O)[C@@H]1CCC(=O)N1 [Leuprolide]	–	3	–
CC(C)(C)NC(=O)[C@H]1CC[C@H]2[C@@H]3CC[C@H]4NC(=O)C=C[C@]4(C)[C@H]3CC[C@]12C [Finasteride]	–	–	½ Life [2]: 4.5 h
CC(C)c1cccc(C(C)C)c1O [Propofol]	–	1	–
O=C(CCCCCCC(=O)Nc1ccccc1)NO [Vorinostat]	–	2	–
COc1ccc2nc([S@@+]([O-])Cc3ncc(C)c(OC)c3C)[nH]c2c1 [Esomeprazole]	–	–	½ Life [2]: 1 h
Cn1c(=O)c2c(ncn2C)n(C)c1=O [Caffeine]	–	3	–
CC1(C)O[C@@H]2C[C@H]3[C@@H]4C[C@H](F)C5=CC(=O)C=C[C@]5(C)[C@@]4(F)[C@@H](O)C[C@]3(C)[C@]2(C(=O)CO)O1 [Fluocinolone Acetonide]	–	–	½ Life [2]: 1.3 h

Molecule	½ Life [1] [h]	½ Life (in vivo) [h]	further results
CC(=O)Oc1ccccc1C(=O)Nc1ncc([N+](=O)[O-])s1 [Nitazoxanide]	3.5	–	–
CC(C(=O)O)c1ccc(-c2ccccc2)c(F)c1 (stereo not drawn) [Flurbiprofen]	–	–	½ Life [2]: 4.7 h
CC(CCc1ccc(O)cc1)NCCc1ccc(O)c(O)c1 (stereo not drawn) [Dobutamine]	–	–	½ Life [2]: 0.033 h
Clc1ccccc1C(c1ccccc1)(c1ccccc1)n1ccnc1 [Clotrimazole]	–	–	½ Life [2]: 2 h
Defibrotide	–	1	–
O=C(NCCN1CCOCC1)c1ccc(Cl)cc1 [Moclobemide]	1	–	–
CNS(=O)(=O)Cc1ccc2[nH]cc(CCN(C)C)c2c1 [Sumatriptan]	–	2.5	–
COC(=O)[C@H](Cc1ccccc1)NC(=O)[C@@H](N)CC(=O)O [Aspartame] (H-Asp-Phe-OMe)	–	–	½ Life [2]: 4.3 h
C[C@]12COC(=O)C[C@@H]1CC[C@@H]1[C@@H]2CC[C@@]2(C)[C@H]1CC[C@]2(C)O [Oxandrolone]	0.55	–	–
NC(=O)CC[C@@H]1NC(=O)[C@H](Cc2ccccc2)NC(=O)[C@H](Cc2ccc(O)cc2)NC(=O)CCSSC[C@@H](C(=O)N2CCC[C@H]2C(=O)N[C@H](CCCN=C(N)N)C(=O)NCC(N)=O)NC(=O)[C@H](CC(N)=O)NC1=O [Desmopressin]	–	1	–
Urokinase	–	0.2	–
C[C@@H]1CC(=O)NN=C1c1ccc(NN=C(C#N)C#N)cc1 [Levosimendan]	1	–	–
CN1CCc2cccc3c2[C@H]1Cc1ccc(O)c(O)c1-3 [Apomorphine]	–	–	½ Life [2]: 0.66 h
CCN(CC)C(=O)C1CN2CCc3cc(OC)c(OC)cc3C2CC1OC(C)=O (stereo not drawn) [Benzquinamide]	–	–	½ Life [2]: 1 h
Nitroprusside	–	0.033	–
N=C(N)NCCCC[C@@H]1NC(=O)CCSSC[C@@H](C(N)=O)NC(=O)[C@@H]2CCCN2C(=O)[C@H](Cc2c[nH]c3ccccc23)NC(=O)[C@H](CC(=O)O)NC(=O)CNC1=O [Eptifibatide] ([Mpa][hArg]GDWPC-NH2; disulfide 1-7)	–	2.5	–
CN1CCN(C(=O)OC2c3nccnc3C(=O)N2c2ccc(Cl)cn2)CC1 (stereo not drawn) [Zopiclone]	–	5	–
CC(=O)N1CCN(c2ccc(OCC3COC(Cn4ccnc4)(c4ccc(Cl)cc4Cl)O3)cc2)CC1 (stereo not drawn) [Ketoconazole]	2	–	–
CCc1nn(CCCN2CCN(c3cccc(Cl)c3)CC2)c(=O)n1CCOc1ccccc1 [Nefazodone]	2	–	–
Alglucosidase alfa	–	2.3	–
Nesiritide	–	0.3	–
COc1cc2c3cc1Oc1cc(ccc1O)C[C@@H]1c4c(cc(OC)c(O)c4Oc4ccc(cc4)C[C@@H]3N(C)CC2)CC[N+]1(C)C [Tubocurarine]	–	1	–
Cc1cn([C@H]2C[C@H](N=[N+]=[N-])[C@@H](CO)O2)c(=O)[nH]c1=O [Zidovudine]	–	1.1	–
C[C@]12CC[C@H](O)CC1=CC[C@@H]1[C@@H]2CC[C@]2(C)C(c3cccnc3)=CC[C@@H]12 [Abiraterone]	–	–	½ Life [2]: 5 h
CC[C@H](C)[C@@H]1NC(=O)[C@H](Cc2ccc(O)cc2)NC(=O)[C@@H](N)CSSC[C@@H](C(=O)N2CCC[C@H]2C(=O)N[C@@H](CC(C)C)C(=O)NCC(N)=O)NC(=O)[C@H](CC(N)=O)NC(=O)[C@H](CCC(N)=O)NC1=O [Oxytocin]	–	0.0166	–
CCOC(=O)C1=C[C@@H](OC(CC)CC)[C@H](NC(C)=O)[C@@H](N)C1 [Oseltamivir]	1	–	–

Molecule	½ Life [1] [h]	½ Life (in vivo) [h]	further results
COc1ccc2[nH]cc(CCNC(C)=O)c2c1 [Melatonin]	0.5833	–	–
O=C1CN(/N=C/c2ccc(-c3ccc([N+](=O)[O-])cc3)o2)C(O)=N1 [Dantrolene]	–	–	½ Life [2]: 4 h
CCN(C)C(=O)Oc1cccc([C@H](C)N(C)C)c1 [Rivastigmine]	–	1.5	–
CCN1C(=O)NC(c2ccccc2)C1=O (stereo not drawn) [Ethotoin]	–	–	½ Life [2]: 3 h
O=P(O)(O)C(O)(Cc1cccnc1)P(=O)(O)O [Risedronate]	–	1.5	–
COc1ccc2c3c1O[C@H]1[C@@H](O)C=C[C@H]4[C@@H](C2)N(C)CC[C@@]341 [Codeine]	–	3	–
CN1CCC[C@@H]1Cc1c[nH]c2ccc(CCS(=O)(=O)c3ccccc3)cc12 [Eletriptan]	–	–	½ Life [2]: 4 h
Nc1ccn([C@@H]2O[C@H](CO)[C@@H](O)[C@@H]2O)c(=O)n1 [Cytarabine]	–	0.166	–
Nc1nc(Cl)nc2c1ncn2[C@H]1C[C@H](O)[C@@H](CO)O1 [Cladribine]	–	–	½ Life [2]: 5.4 h
CCCCc1nc(Cl)c(CO)n1Cc1ccc(-c2ccccc2-c2nn[nH]n2)cc1 [Losartan, reference compound]	1	–	–
Nc1ccn([C@@H]2O[C@H](CO)[C@@H](O)C2(F)F)c(=O)n1 [Gemcitabine]	0.7	–	–
CC(C)NCC(O)COc1cccc2[nH]ccc12 (stereo not drawn) [Pindolol]	3	–	–
OCc1cc(C(O)CNCCCCCCOCCCCc2ccccc2)ccc1O (stereo not drawn) [Salmeterol]	–	5.5	–
Tinzaparin	–	1.366	–
NCC1(CC(=O)O)CCCCC1 [Gabapentin]	–	5	–
CC(C)[N+]1(C)[C@@H]2CC[C@H]1CC(OC(=O)C(CO)c1ccccc1)C2.[Br-] (stereo partly drawn) [Ipratropium bromide]	2	–	–
CCCCC[C@H](O)CC[C@@H]1[C@H]2Cc3cccc(OCC(=O)O)c3C[C@H]2C[C@H]1O [Treprostinil]	–	2	–
Nc1c2c(nc3ccccc13)CCCC2 [Tacrine]	–	2	–
C[C@@](Cc1ccc(O)c(O)c1)(NN)C(=O)O [Carbidopa]	–	–	½ Life [2]: 1 h
O=C(O)c1cccnc1 [niacin, reference compound]	0.33	–	half-life (see Table 1): 0.33 h
C=CCN1CC[C@]23CCCC[C@H]2[C@H]1Cc1ccc(O)cc13 [Levallorphan]	1	–	–
CC(=O)[C@H]1CC[C@H]2[C@@H]3CC[C@H]4C[C@](C)(O)CC[C@]4(C)[C@H]3CC[C@]12C [Ganaxolone]	1.3	–	–
COc1ccc(C[C@@H]2c3cc(OC)c(OC)cc3CC[N@+]2(C)CCC(=O)OCCCCCOC(=O)CC[N@@+]2(C)CCc3cc(OC)c(OC)cc3[C@H]2Cc2ccc(OC)c(OC)c2)cc1OC [Cisatracurium Besylate]	–	–	½ Life [2]: 0.366 h
COCCOc1cnc(NS(=O)(=O)c2ccccc2)nc1 [Glycodiazine]	4	–	–
